In patent publication US12240837B2, “Chemokine receptor modulators and uses thereof” (RAPT THERAPEUTICS, INC., priority 2022, dated 2025):
pIC50: −log10 of the molar value.

Target: T1, CCR4 receptor (Homo sapiens, UniProt P51679)
T1 construct: beta-galactosidase enzyme-fragment tag (receptor modification for beta-arrestin complementation); expressed in transfected cells; host or cells: CHO-K1
T1 sequence (P51679 1-360): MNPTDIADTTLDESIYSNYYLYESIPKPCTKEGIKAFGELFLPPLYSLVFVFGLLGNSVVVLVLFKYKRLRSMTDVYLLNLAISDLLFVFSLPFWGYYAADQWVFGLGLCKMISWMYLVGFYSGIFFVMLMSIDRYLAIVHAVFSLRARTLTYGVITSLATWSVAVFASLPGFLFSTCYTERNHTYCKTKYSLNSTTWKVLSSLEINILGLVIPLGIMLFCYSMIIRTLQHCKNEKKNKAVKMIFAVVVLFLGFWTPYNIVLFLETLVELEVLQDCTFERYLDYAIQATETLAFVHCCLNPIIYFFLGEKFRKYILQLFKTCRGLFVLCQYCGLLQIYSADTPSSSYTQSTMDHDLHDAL
Assay: CCR4 antagonist activity in beta-arrestin cellular assay (PathHunter chemiluminescence)
Assay type: cell-based
Conditions: CHO-K1 cells expressing CCR4; 30 min pre-incubation; CCL22 challenge at EC80 (15 nM) for 90 minutes; read-out: Potency (CCR4 antagonist IC50 in the β-arrestin assay)
Protocol: CCR4 Antagonistic Activity was assessed in Beta-Arrestin Cellular Assay. Compounds were assessed in CHO-K1 cells expressing the CCR4 receptor modified to enable β-glactosidase detection of p-arrestin agonist activity stimulated by CCL22 in a chemiluminescence assay. Cells were seeded in a total volume of 20 μL into white walled, 384-well microplates and incubated at 37° C. prior to testing. Cells were pre-incubated with test compound for 30 min at 37° C. followed by agonist challenge with CCL22 at the EC80 concentration (15 nM) for 90 minutes. Assay signal was generated through a single addition of 12.5 or 15 μL (50% v/v) of PathHunter Detection reagent cocktail, followed by a one hour incubation at room temperature. Microplates were read following signal generation with a PerkinElmer Envision™ instrument for chemiluminescent signal detection. Antagonist activity was analyzed using CBIS data analysis suite (ChemInnovation, CA). Antagonist activity was characterized as percentage inhibition calculated using the following formula: % Inhibition=100%×(1−(mean RLU of test sample−mean RLU of vehicle control)/(mean RLU of EC80 control−mean RLU of vehicle control)).
An IC50 of >500 nM is designated as Potency C, an IC50 of between 500 nM and 200 nM is designated as Potency B and an IC50 of <200 nM is designated as Potency A.

**Q.** How did the pIC50 turn out when `Cc1nc(N2CCC(C3CN(C4CC(C)(C(=O)O)C4)C3)C2)nc(N[C@H](C)c2ccc(Cl)cc2Cl)c1Cl` (mixture of isomers) [Example 3, 3-(3-(1-(5-chloro-4-(((R)-1-(2,4-dichlorophenyl)ethyl)amino)-6-methylpyrimidin-2-yl)pyrrolidin-3-yl)azetidin-1-yl)-1-methylcyclobutane-1-carboxylic Acid] was run?
**A.** The pIC50 was < 6.30.

**Q.** `C[C@@H](Nc1nc(N2CCC(C3CCCN(C4CC(C)(C(=O)O)C4)C3)CC2)ncc1Cl)c1ccc(Cl)cc1Cl` (mixture of isomers) [Example 6, 3-(1′-(5-chloro-4-(((R)-1-(2,4-dichlorophenyl)ethyl)amino)pyrimidin-2-yl)-[3,4′-bipiperidin]-1-yl)-1-methylcyclobutane-1-carboxylic Acid] was tested. Which pIC50 did it give?
**A.** The pIC50 was > 6.70.

**Q.** `C[C@@H](Nc1nc(N2CCC(C3CCCCN3)C2)ncc1Cl)c1ccc(Cl)cc1Cl` (mixture of isomers) [Example 8, 5-chloro-N—((R)-1-(2,4-dichlorophenyl)ethyl)-2-(3-(piperidin-2-yl)pyrrolidin-1-yl)pyrimidin-4-amine] was tested. Which pIC50 did it give?
**A.** Its pIC50 is > 6.70.

**Q.** How did the pIC50 turn out when `Cc1nc(N2CCC(C3CCCCN3)C2)nc(N[C@H](C)c2ccc(Cl)cc2Cl)c1Cl` (mixture of isomers) [Example 10, 5-chloro-N—((R)-1-(2,4-dichlorophenyl)ethyl)-6-methyl-2-(3-(piperidin-2-yl)pyrrolidin-1-yl)pyrimidin-4-amine] was run?
**A.** Its pIC50 is 6.30 to 6.70.

**Q.** With `Cc1nc(N2CCC(C3CCCN(C4CC(C)(C(=O)O)C4)C3)C2)nc(N[C@H](C)c2ccc(Cl)cc2Cl)c1Cl` (stereo partly drawn) [Example 1, 3-(3-(1-(5-chloro-4-(((R)-1-(2,4-dichlorophenyl)ethyl)amino)-6-methylpyrimidin-2-yl)pyrrolidin-3-yl)piperidin-1-yl)-1-methylcyclobutane-1-carboxylic Acid] as the compound, how does the pIC50 read?
**A.** Its pIC50 is > 6.70.

**Q.** How did the pIC50 turn out when `Cc1nc(N2CCC(C3CCCN(C4CC(C)(C(=O)O)C4)C3)CC2)nc(N[C@H](C)c2ccc(Cl)cc2Cl)c1Cl` (stereo partly drawn) [Example 2, 3-(1′-(5-chloro-4-(((R)-1-(2,4-dichlorophenyl)ethyl)amino)-6-methylpyrimidin-2-yl)-[3,4′-bipiperidin]-1-yl)-1-methylcyclobutane-1-carboxylic Acid] was run?
**A.** Its pIC50 is > 6.70.

**Q.** `Cc1nc(N2CCC(C3CCN(C4CC(C)(C(=O)O)C4)C3)C2)nc(N[C@H](C)c2ccc(Cl)cc2Cl)c1Cl` (stereo partly drawn) [Example 4, 3-(1′-(5-chloro-4-(((R)-1-(2,4-dichlorophenyl)ethyl)amino)-6-methylpyrimidin-2-yl)-[3,3′-bipyrrolidin]-1-yl)-1-methylcyclobutane-1-carboxylic Acid] was tested. Which pIC50 did it give?
**A.** The pIC50 was 6.30 to 6.70.

**Q.** `C[C@@H](Nc1nc(N2CCC(C3CCCN(C4CC(C)(C(=O)O)C4)C3)C2)ncc1Cl)c1ccc(Cl)cc1Cl` (stereo partly drawn) [Example 5, 3-(3-(1-(5-chloro-4-(((R)-1-(2,4-dichlorophenyl)ethyl)amino)pyrimidin-2-yl)pyrrolidin-3-yl)piperidin-1-yl)-1-methylcyclobutane-1-carboxylic Acid] was tested. Which pIC50 did it give?
**A.** The pIC50 was > 6.70.

**Q.** `C[C@@H](Nc1nc(N2CCC(C3CCN(C4CC(C)(C(=O)O)C4)C3)C2)ncc1Cl)c1ccc(Cl)cc1Cl` (stereo partly drawn) [Example 7, 3-(1′-(5-chloro-4-(((R)-1-(2,4-dichlorophenyl)ethyl)amino)pyrimidin-2-yl)-[3,3′-bipyrrolidin]-1-yl)-1-methylcyclobutane-1-carboxylic Acid] was tested. Which pIC50 did it give?
**A.** Its pIC50 is 6.30 to 6.70.

**Q.** With `C[C@@H](Nc1nc(N2CCC(C3CCCCN3C3CC(C)(C(=O)O)C3)C2)ncc1Cl)c1ccc(Cl)cc1Cl` (stereo partly drawn) [Example 9, 3-(2-(1-(5-chloro-4-(((R)-1-(2,4-dichlorophenyl)ethyl)amino)pyrimidin-2-yl)pyrrolidin-3-yl)piperidin-1-yl)-1-methylcyclobutane-1-carboxylic Acid] as the compound, how does the pIC50 read?
**A.** The pIC50 was > 6.70.

**Q.** `Cc1nc(N2CCC(C3CCCCN3C3CC(C)(C(=O)O)C3)C2)nc(N[C@H](C)c2ccc(Cl)cc2Cl)c1Cl` (stereo partly drawn) [Example 11, 3-(2-(1-(5-chloro-4-(((R)-1-(2,4-dichlorophenyl)ethyl)amino)-6-methylpyrimidin-2-yl)pyrrolidin-3-yl)piperidin-1-yl)-1-methylcyclobutane-1-carboxylic Acid] was tested. Which pIC50 did it give?
**A.** The pIC50 was 6.30 to 6.70.

**Q.** With `C[C@@H](Nc1nc(N2CCC(C3CCCN(C4CC(C(=O)O)C4)C3)CC2)ncc1Cl)c1ccc(Cl)cc1Cl` (stereo partly drawn) [Example 12, 3-(1′-(5-chloro-4-(((R)-1-(2,4-dichlorophenyl)ethyl)amino)pyrimidin-2-yl)-[3,4′-bipiperidin]-1-yl)cyclobutane-1-carboxylic Acid] as the compound, how does the pIC50 read?
**A.** The pIC50 was > 6.70.

**Q.** `Cc1nc(N2CCC(C3CCCN(C4CC(C(=O)O)C4)C3)CC2)nc(N[C@H](C)c2ccc(Cl)cc2Cl)c1Cl` (stereo partly drawn) [Example 13, 3-(1′-(5-chloro-4-(((R)-1-(2,4-dichlorophenyl)ethyl)amino)-6-methylpyrimidin-2-yl)-[3,4′-bipiperidin]-1-yl)cyclobutane-1-carboxylic Acid] was tested. Which pIC50 did it give?
**A.** The pIC50 was > 6.70.

**Q.** How did the pIC50 turn out when `Cc1nc(N2CCC(C3CCCN(C(C)C(=O)O)C3)CC2)nc(N[C@H](C)c2ccc(Cl)cc2Cl)c1Cl` (stereo partly drawn) [Example 14, 2-(1′-(5-chloro-4-(((R)-1-(2,4-dichlorophenyl)ethyl)amino)-6-methylpyrimidin-2-yl)-[3,4′-bipiperidin]-1-yl)propanoic Acid] was run?
**A.** The pIC50 was > 6.70.

**Q.** With `CC(C(=O)O)N1CCCC(C2CCN(c3ncc(Cl)c(N[C@H](C)c4ccc(Cl)cc4Cl)n3)CC2)C1` (stereo partly drawn) [Example 15, 2-(1′-(5-chloro-4-(((R)-1-(2,4-dichlorophenyl)ethyl)amino)pyrimidin-2-yl)-[3,4′-bipiperidin]-1-yl)propanoic Acid] as the compound, how does the pIC50 read?
**A.** The pIC50 was > 6.70.

**Q.** How did the pIC50 turn out when `C[C@@H](Nc1nc(N2CCC(C3CCCN(CCC(=O)O)C3)CC2)ncc1Cl)c1ccc(Cl)cc1Cl` (stereo partly drawn) [Example 16, 3-(1′-(5-chloro-4-(((R)-1-(2,4-dichlorophenyl)ethyl)amino)pyrimidin-2-yl)-[3,4′-bipiperidin]-1-yl)propanoic Acid] was run?
**A.** The pIC50 was > 6.70.

**Q.** With `Cc1nc(N2CCC(C3CCCN(CCC(=O)O)C3)CC2)nc(N[C@H](C)c2ccc(Cl)cc2Cl)c1Cl` (stereo partly drawn) [Example 17, 3-(1′-(5-chloro-4-(((R)-1-(2,4-dichlorophenyl)ethyl)amino)-6-methylpyrimidin-2-yl)-[3,4′-bipiperidin]-1-yl)propanoic Acid] as the compound, how does the pIC50 read?
**A.** The pIC50 was > 6.70.
